In patent EP4711368A1 (priority 2023, dated 2024):
Where two headings read alike, the source gives them in different places.

Key:
SD rats [1] = assay: animal or person; assay type: in vivo; details: iv; for Minimal effective anesthetic dose / Onset time / Righting feflex duration / Sedation Duration: rat, in vivo; for minimal effective dose: Rattus norvegicus
SD rats [2] = details: rat, in vivo; for MLD: iv
[3] = read-out: Minimal effective analgesic dose
[4] = read-out: Minimal effective anesthetic dose
Throughout, for Onset time: test concentration or dose not given here.
Throughout, for Righting feflex duration: test concentration or dose not given here.
Throughout, for Sedation Duration: test concentration or dose not given here.

Structure (SMILES)	Minimal effective anesthetic dose (SD rats [1])	Onset time (SD rats [1])	Righting feflex duration (SD rats [1])	Sedation Duration (SD rats [1])	TI (SD rats [2])	MLD (SD rats [2])	minimal effective dose (SD rats [1]; [3])	minimal effective dose (SD rats [1]; [4])	TI (SD rats [2]; SD)	MLD (SD rats [2]; SD)
Cc1cnc2n1-c1ccc(Br)cc1C(c1ccccn1)=NC2COC(=O)CN(C)C (centres unmarked) [Compound 196]	15 mg/kg	0.2 to 1.4 min	9.5 to 23.6 min	214.5 to 403.5 min	3.3	50 mg/kg	–	–	–	–
CN1C(=O)N(COC(=O)CCCl)N=C(c2ccccn2)c2cc(Br)ccc21 [Compound 290]	–	0.45 min	6.63 min	18.08 min	–	–	15 mg/kg	15 mg/kg	1.3	20 mg/kg
CN(C)C(=O)OCN1N=C(c2ccccn2)c2cc(Br)ccc2N(C)C1=O [Compound 291]	–	0.65 to 0.92 min	2.03 to 5.98 min	–	–	–	15 mg/kg	15 mg/kg	2	30 mg/kg
CCC(C)OC(=O)CN1N=C(c2ccccn2)c2cc(Br)ccc2N(C)C1=O (centres unmarked) [Compound 241]	–	0.43 to 0.90 min	3.47 to 30.13 min	18.10 to 73.95 min	–	–	–	7.5 mg/kg	4	30 mg/kg
CN1C(=O)N(CC(=O)OC2CC2)N=C(c2ccccn2)c2cc(Br)ccc21 [Compound 244]	–	0.15 to 0.18 min	0.78 to 3.85 min	11.42 to 18.83 min	–	–	–	15 mg/kg	2.7	40 mg/kg
CN1C(=O)N(CCc2cccs2)N=C(c2ccccn2)c2cc(Br)ccc21 [Compound 284]	–	0.2 min	20 min	70.72 min	–	–	–	40 mg/kg	>1	>40 mg/kg
CC(C)N(C)C(=O)OCN1N=C(c2ccccn2)c2cc(Br)ccc2N(C)C1=O [Compound 293]	–	0.95 min	4.20 min	82.85 min	–	–	15 mg/kg	15 mg/kg	1.3	20 mg/kg
C=CC(=O)OCCC1N=C(c2ccccn2)c2cc(Br)ccc2-n2c(C)cnc21 (centres unmarked) [Compound 151]	1.8 mg/kg	0.2 to 3.4 min	3.7 to 38.6 min	19.0 to 68.4 min	16.3	29.4 mg/kg	–	–	–	–
CCOC(=O)CN1N=C(c2ccccn2)C(Cl)=CN(C)C1=O [Compound 348]	–	0.75 min	2.03 min	116.72 min	–	–	–	20 mg/kg	>1	>20 mg/kg
Cc1cnc2n1-c1ccc(Br)cc1C(c1ccccn1)=NN2CCOC(=O)N(C)C [Compound 317]	–	0.22 to 0.38 min	4.08 to 25.97 min	18.73 to 70.28 min	–	–	10 mg/kg	5 mg/kg	4	20 mg/kg
CC(C)OC(=O)CN1N=C(c2ccccn2)c2cc(Br)ccc2N(C(C)C)C1=O [Compound 257]	–	0.77 to 1.48 min	5.85 to 20.40 min	33.47 to 64.03 min	–	–	10 mg/kg	10 mg/kg	4	40 mg/kg
CC(C)OC(=O)CN1N=C(c2ccccn2)c2cc(Br)ccc2N(C)C1=O [Compound 239]	–	0.17 to 0.75 min	1.30 to 11.58 min	17.72 to 23.57 min	–	–	10 mg/kg	5 mg/kg	8	40 mg/kg
